Results from publication PMC6478789, “A chemical toolbox for the study of bromodomains and epigenetic signaling” (Nature Communications, 2019).

Experiments:
Test in all cases: Methyl transferase scintillation proximity assay
Format in all cases: biochemical
Details in all cases: average of two measurements; for inhibition at 10 µM: read-out: MTases Inhibition (%)
PRMT5 = target: T1, PRMT5 (Homo sapiens, UniProt O14744)
T1 construct: purchased DiscoverX BROMOscan (bromodomains); SGC in-house methyltransferase panel
Procedure: (§1) Assays measuring lysine and arginine methyl transferase activity have been described in Scheer et al.. A radioactivity-based scintillation proximity assay was used to monitor incorporation of a tritium-labeled methyl group into the biotinylated substrate of the methyl transferase. A 10-μl reaction containing ^3H-SAM and substrate at concentrations close to the apparent Km values for each enzyme was prepared. The reactions were quenched with 10 μl of 7.5 M guanidine hydrochloride; 180 μl of 20 mM Tris buffer (pH 8.0) were added; and the mixture was transferred to a 96-well FlashPlate and incubated for 1 h. The counts per minute (CPM) was measured on a TopCount plate reader. The CPM in the absence of compound or enzyme was defined as 100% activity and background (0%), respectively, for each dataset.

NSD2 = target: T2, NSD2 (Homo sapiens, UniProt O96028)
T2 construct: purchased DiscoverX BROMOscan (bromodomains); SGC in-house methyltransferase panel
T2 sequence (O96028 1-1365): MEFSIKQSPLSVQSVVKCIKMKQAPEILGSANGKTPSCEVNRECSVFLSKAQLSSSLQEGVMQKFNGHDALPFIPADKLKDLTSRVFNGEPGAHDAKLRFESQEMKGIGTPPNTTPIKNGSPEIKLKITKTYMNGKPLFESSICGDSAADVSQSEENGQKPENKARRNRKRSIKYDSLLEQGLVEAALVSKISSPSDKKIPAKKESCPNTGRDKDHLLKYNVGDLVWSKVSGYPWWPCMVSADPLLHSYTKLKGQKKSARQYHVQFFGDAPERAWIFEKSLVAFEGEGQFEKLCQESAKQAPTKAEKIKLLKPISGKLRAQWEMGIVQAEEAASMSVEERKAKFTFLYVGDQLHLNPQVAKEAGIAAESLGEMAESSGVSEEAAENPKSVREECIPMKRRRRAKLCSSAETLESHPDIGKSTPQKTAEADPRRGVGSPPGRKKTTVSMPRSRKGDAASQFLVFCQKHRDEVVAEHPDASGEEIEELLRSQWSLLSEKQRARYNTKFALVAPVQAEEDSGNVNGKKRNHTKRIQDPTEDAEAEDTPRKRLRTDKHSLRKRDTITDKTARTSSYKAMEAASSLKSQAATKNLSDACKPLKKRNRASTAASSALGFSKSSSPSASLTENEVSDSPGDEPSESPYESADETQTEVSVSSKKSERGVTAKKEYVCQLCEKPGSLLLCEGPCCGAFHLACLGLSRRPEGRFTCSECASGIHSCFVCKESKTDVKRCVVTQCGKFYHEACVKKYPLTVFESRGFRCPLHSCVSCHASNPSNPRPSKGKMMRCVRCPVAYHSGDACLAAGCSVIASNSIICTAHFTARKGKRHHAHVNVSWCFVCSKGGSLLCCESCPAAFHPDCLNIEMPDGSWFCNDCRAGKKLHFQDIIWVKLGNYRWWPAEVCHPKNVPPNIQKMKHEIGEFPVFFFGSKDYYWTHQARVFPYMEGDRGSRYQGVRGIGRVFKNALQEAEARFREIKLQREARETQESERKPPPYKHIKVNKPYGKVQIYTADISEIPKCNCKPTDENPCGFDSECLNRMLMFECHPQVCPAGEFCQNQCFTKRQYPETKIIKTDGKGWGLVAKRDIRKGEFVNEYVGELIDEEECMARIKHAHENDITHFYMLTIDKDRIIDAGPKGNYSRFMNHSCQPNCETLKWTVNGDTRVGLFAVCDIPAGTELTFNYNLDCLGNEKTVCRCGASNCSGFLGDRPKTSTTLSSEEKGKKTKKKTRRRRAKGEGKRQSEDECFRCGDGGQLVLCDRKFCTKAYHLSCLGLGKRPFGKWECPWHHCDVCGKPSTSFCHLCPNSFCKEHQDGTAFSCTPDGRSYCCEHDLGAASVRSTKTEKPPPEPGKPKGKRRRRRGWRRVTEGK
Procedure: as §1

SETD2 = target: T3, SETD2 (Homo sapiens, UniProt Q9BYW2)
T3 construct: purchased DiscoverX BROMOscan (bromodomains); SGC in-house methyltransferase panel
Procedure: as §1

DOT1L = target: T4, DOT1L (Homo sapiens, UniProt Q8TEK3)
T4 construct: purchased DiscoverX BROMOscan (bromodomains); SGC in-house methyltransferase panel
Procedure: as §1

BCDIN3D = target: T5, BCDIN3D (Homo sapiens, UniProt Q7Z5W3)
T5 construct: purchased DiscoverX BROMOscan (bromodomains); SGC in-house methyltransferase panel
T5 sequence (Q7Z5W3 1-292): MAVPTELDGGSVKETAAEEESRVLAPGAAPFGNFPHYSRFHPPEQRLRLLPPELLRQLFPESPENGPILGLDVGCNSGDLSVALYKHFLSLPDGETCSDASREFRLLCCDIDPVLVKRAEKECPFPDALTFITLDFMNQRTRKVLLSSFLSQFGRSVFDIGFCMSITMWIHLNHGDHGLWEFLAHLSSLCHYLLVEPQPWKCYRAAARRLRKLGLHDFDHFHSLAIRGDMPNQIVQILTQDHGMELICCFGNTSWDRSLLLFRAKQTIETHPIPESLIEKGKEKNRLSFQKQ
Procedure: as §1

PRC2-EZH1 = target: T6, PRC2-EZH1 (Homo sapiens, UniProt Q92800)
T6 construct: purchased DiscoverX BROMOscan (bromodomains); SGC in-house methyltransferase panel
Procedure: as §1

SETD8 = target: T7, SETD8 (Homo sapiens, UniProt Q9NQR1)
T7 construct: purchased DiscoverX BROMOscan (bromodomains); SGC in-house methyltransferase panel
T7 sequence (Q9NQR1 1-393): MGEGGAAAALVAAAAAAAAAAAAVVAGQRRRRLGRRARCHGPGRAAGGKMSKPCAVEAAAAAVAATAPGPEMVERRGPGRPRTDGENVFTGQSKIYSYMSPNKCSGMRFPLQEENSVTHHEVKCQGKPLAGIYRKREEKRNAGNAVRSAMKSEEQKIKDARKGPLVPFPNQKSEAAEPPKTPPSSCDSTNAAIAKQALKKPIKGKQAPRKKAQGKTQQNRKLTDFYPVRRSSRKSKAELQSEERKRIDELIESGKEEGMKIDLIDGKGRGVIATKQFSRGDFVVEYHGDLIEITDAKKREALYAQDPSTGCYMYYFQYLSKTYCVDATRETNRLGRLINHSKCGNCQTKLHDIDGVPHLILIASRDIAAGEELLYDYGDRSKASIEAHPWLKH
Procedure: as §1

PRDM9 = target: T8, PRDM9 (Homo sapiens, UniProt Q9NQV7)
T8 construct: purchased DiscoverX BROMOscan (bromodomains); SGC in-house methyltransferase panel
Procedure: as §1

T1 sequence (O14744 whole entry): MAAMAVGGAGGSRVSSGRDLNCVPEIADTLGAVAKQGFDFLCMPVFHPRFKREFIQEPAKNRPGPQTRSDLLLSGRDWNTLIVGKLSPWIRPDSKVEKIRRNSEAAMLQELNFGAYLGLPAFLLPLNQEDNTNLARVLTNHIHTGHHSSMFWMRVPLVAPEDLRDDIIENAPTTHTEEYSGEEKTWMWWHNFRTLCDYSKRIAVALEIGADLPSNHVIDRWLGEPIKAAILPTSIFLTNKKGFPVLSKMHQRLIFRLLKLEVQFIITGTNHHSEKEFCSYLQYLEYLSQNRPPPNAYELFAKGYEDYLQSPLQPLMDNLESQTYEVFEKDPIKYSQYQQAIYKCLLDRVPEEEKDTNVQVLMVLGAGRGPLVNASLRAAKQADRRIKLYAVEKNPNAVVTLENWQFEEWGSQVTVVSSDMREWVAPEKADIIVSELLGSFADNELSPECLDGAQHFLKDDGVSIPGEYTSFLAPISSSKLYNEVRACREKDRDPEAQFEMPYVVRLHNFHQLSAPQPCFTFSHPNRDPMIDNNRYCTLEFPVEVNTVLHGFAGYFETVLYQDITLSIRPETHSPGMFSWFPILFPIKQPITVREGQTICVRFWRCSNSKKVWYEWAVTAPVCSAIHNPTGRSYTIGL
T1 sequence (Q9BQA1 whole entry partner): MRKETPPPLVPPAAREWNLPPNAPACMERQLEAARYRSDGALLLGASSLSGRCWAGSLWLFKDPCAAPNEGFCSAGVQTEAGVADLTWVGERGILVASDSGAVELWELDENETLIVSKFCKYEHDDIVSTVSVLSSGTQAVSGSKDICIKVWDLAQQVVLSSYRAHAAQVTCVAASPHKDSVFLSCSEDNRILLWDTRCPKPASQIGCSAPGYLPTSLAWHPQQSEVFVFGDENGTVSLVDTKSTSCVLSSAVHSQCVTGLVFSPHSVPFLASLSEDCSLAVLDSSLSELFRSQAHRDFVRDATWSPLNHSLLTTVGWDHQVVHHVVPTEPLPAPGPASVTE
T3 sequence (Q9BYW2 whole entry): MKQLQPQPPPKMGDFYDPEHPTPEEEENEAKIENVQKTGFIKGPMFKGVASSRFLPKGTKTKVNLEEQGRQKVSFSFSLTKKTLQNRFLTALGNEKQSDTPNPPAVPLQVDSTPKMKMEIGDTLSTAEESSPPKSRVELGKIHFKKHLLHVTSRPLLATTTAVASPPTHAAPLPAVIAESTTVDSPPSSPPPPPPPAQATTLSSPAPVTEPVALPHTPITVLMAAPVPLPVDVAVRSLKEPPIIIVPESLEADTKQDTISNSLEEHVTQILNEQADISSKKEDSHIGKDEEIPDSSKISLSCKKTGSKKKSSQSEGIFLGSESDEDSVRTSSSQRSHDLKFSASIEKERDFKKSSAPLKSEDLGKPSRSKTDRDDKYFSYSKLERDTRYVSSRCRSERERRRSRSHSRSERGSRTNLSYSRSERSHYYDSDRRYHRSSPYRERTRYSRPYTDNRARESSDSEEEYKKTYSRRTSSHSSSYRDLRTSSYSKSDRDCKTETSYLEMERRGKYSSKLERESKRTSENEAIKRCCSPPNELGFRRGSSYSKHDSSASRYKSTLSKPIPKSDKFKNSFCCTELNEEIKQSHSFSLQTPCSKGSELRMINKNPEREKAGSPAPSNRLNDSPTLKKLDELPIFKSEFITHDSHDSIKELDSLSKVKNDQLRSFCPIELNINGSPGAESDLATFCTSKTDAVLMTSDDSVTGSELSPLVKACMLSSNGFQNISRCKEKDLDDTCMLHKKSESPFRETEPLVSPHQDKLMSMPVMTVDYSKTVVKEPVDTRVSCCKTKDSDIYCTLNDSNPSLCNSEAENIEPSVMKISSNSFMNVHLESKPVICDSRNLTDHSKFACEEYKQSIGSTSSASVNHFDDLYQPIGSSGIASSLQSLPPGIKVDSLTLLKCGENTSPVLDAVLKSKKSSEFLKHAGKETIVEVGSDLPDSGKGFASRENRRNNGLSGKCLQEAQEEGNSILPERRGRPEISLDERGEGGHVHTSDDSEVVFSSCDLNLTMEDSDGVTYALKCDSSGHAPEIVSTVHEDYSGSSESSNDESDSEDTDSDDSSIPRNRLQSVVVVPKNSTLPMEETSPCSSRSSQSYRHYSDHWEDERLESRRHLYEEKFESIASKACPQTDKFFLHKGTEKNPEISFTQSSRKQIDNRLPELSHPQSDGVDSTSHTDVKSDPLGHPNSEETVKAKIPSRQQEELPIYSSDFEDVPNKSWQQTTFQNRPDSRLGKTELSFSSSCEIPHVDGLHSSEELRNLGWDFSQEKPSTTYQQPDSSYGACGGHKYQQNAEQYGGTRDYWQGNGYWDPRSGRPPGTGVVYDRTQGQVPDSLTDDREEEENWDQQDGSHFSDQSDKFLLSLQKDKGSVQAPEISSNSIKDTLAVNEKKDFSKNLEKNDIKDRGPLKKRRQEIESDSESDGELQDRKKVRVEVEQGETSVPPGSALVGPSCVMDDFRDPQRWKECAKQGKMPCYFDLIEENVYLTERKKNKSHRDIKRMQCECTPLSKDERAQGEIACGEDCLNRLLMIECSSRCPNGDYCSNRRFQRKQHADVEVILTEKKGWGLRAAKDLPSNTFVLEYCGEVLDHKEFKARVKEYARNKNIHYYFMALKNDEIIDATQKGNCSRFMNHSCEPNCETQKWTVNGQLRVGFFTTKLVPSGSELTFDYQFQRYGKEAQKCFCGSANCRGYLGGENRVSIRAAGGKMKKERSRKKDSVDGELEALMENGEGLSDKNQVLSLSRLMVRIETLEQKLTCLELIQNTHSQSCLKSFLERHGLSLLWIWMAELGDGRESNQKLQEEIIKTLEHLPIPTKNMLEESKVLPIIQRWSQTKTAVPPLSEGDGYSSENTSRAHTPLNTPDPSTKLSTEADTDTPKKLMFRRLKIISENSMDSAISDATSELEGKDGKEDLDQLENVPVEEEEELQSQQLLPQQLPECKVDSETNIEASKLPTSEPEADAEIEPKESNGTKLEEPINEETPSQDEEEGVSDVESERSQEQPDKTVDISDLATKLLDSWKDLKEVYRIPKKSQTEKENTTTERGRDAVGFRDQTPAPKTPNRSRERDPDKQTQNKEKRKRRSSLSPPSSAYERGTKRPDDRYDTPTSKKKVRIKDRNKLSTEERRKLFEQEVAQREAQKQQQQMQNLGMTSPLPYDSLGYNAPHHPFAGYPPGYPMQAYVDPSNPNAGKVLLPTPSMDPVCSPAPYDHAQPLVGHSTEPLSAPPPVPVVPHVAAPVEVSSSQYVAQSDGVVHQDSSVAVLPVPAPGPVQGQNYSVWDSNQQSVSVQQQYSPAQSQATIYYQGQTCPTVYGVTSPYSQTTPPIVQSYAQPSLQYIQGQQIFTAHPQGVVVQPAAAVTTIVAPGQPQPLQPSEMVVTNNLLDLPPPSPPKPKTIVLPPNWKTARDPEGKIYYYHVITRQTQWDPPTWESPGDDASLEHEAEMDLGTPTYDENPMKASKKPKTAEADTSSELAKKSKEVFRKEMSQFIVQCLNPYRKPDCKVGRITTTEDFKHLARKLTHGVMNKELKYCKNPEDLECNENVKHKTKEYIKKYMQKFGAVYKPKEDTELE
T4 sequence (Q8TEK3 whole entry): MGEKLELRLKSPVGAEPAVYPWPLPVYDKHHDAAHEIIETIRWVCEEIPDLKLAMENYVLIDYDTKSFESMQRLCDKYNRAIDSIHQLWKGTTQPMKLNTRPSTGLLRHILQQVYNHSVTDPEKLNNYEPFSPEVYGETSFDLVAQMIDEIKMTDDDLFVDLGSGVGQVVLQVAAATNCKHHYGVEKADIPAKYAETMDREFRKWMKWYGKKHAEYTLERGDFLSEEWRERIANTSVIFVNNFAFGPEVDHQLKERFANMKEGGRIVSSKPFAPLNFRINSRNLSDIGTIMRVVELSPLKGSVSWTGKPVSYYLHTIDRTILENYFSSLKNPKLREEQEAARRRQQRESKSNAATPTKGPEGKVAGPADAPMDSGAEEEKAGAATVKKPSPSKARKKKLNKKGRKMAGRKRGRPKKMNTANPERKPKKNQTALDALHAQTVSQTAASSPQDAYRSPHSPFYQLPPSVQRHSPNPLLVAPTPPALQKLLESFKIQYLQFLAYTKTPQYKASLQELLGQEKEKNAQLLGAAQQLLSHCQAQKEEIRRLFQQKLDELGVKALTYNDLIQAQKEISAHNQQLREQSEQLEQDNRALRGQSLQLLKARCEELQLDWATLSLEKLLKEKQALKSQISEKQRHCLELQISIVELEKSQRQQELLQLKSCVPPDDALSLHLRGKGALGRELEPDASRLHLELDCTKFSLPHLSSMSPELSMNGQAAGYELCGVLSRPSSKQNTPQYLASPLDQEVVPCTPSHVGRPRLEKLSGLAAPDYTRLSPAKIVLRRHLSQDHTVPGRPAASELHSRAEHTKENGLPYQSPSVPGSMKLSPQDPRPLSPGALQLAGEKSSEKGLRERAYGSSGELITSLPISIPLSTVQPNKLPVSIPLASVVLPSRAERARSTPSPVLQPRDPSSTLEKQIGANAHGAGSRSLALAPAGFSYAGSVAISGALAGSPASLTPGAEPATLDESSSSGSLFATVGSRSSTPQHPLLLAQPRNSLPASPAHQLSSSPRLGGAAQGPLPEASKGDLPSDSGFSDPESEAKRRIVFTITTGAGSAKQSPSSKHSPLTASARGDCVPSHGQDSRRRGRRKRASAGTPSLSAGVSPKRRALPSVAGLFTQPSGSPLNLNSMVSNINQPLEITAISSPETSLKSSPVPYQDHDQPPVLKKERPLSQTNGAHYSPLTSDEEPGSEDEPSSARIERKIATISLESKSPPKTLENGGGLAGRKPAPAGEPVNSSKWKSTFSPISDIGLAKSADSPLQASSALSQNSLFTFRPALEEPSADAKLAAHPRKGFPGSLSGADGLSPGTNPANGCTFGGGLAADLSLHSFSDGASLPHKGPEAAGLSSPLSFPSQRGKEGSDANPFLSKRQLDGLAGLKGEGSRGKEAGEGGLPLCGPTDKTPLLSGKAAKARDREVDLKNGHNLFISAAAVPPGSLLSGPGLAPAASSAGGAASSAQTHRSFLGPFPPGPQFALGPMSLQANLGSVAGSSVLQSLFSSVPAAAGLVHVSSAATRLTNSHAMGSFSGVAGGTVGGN

Cc1c(NC(=O)c2cc(C(N)=O)nc3cc(F)ccc23)c(C(F)(F)F)nn1Cc1ccc(C(C)(C)C)cc1 [BAY-588] gave an inhibition at 10 µM (PRMT5) of 4%, an inhibition at 10 µM (NSD2) of 2% and an inhibition at 10 µM (SETD2) of 0%. For the same compound, the inhibition at 10 µM (DOT1L) was 3%, the inhibition at 10 µM (BCDIN3D) was 16% and the inhibition at 10 µM (PRC2-EZH1) was 3%. It also gave an inhibition at 10 µM (SETD8) of -3% and an inhibition at 10 µM (PRDM9) of 3%.

COc1cc(Cl)c(C(=O)N[C@@H](CN[C@H]2CC[C@@H](N)CC2)Cc2ccc(C#N)cc2)cc1-c1ccc(CN[C@H](C)c2ccc(C)cc2)o1 [BAY-850] was tested, and the inhibition at 10 µM (PRMT5) was 4%, the inhibition at 10 µM (NSD2) was -1% and the inhibition at 10 µM (SETD2) was 7%. It also gave an inhibition at 10 µM (DOT1L) of 3%, an inhibition at 10 µM (BCDIN3D) of 28% and an inhibition at 10 µM (PRC2-EZH1) of 19%. For the same compound, the inhibition at 10 µM (SETD8) was 2% and the inhibition at 10 µM (PRDM9) was 10%.

Cc1c(NC(=O)c2cc(C(N)=O)nc3cc(F)ccc23)c(C(F)(F)F)nn1Cc1ccc(C#N)cc1 [BAY-876] gave an inhibition at 10 µM (PRMT5) of -1%, an inhibition at 10 µM (NSD2) of 0% and an inhibition at 10 µM (SETD2) of -4%. It also gave an inhibition at 10 µM (DOT1L) of -6%, an inhibition at 10 µM (BCDIN3D) of 17% and an inhibition at 10 µM (PRC2-EZH1) of -4%. For the same compound, the inhibition at 10 µM (SETD8) was 0% and the inhibition at 10 µM (PRDM9) was 0%.

For CN1C[C@H](Nc2cnn(C)c(=O)c2Br)C[C@H](c2ccccc2)C1 [GSK4027], the inhibition at 10 µM (PRMT5) was 8%, the inhibition at 10 µM (NSD2) was 15% and the inhibition at 10 µM (SETD2) was -1%. The inhibition at 10 µM (DOT1L) was -2%, the inhibition at 10 µM (BCDIN3D) was 14% and the inhibition at 10 µM (PRC2-EZH1) was -1%. It also gave an inhibition at 10 µM (SETD8) of 10% and an inhibition at 10 µM (PRDM9) of 3%.

COc1ccccc1C(=O)Nc1cc2c(cc1N1CCNC[C@H]1C)n(C)c(=O)n2C [GSK6853] was tested, and the “MTases Inhibition (%)” value (PRMT5; 10µM) was 3%, the “MTases Inhibition (%)” value (NSD2; 10µM) was 13% and the “MTases Inhibition (%)” value (SETD2; 10µM) was 1%. For the same compound, the “MTases Inhibition (%)” value (DOT1L; 10µM) was 10%, the “MTases Inhibition (%)” value (BCDIN3D; 10µM) was 5% and the “MTases Inhibition (%)” value (PRC2-EZH1; 10µM) was 1%. The “MTases Inhibition (%)” value (SETD8; 10µM) was -6% and the “MTases Inhibition (%)” value (PRDM9; 10µM) was -2%.

In the case of CO[C@H]1CNC[C@@H](OCC2CCC(F)(F)CC2)[C@@H]1Nc1ncc(-c2cncc(C)c2)c2cc(C)c(=O)[nH]c12 [GSK8814], the inhibition at 10 µM (PRMT5) is reported as -2%, the inhibition at 10 µM (NSD2) is reported as 24% and the inhibition at 10 µM (SETD2) is reported as 7%. It also gave an inhibition at 10 µM (DOT1L) of 5%, an inhibition at 10 µM (BCDIN3D) of 7% and an inhibition at 10 µM (PRC2-EZH1) of 1%. For the same compound, the inhibition at 10 µM (SETD8) was -7% and the inhibition at 10 µM (PRDM9) was 0%.

Cc1nnc2c3ccccc3c(N[C@@H](C)[C@H](c3ccccc3)N(C)C)nn12 [L-Moses] showed an inhibition at 10 µM (PRMT5) of -3%, an inhibition at 10 µM (NSD2) of 2% and an inhibition at 10 µM (SETD2) of 11%. It also gave an inhibition at 10 µM (DOT1L) of 1%, an inhibition at 10 µM (BCDIN3D) of 9% and an inhibition at 10 µM (PRC2-EZH1) of 5%. For the same compound, the inhibition at 10 µM (SETD8) was -8% and the inhibition at 10 µM (PRDM9) was 4%.

CN(C)CCCOc1ccc(-c2cc(NCCCn3cccn3)nc(S(C)(=O)=O)n2)cc1 [TP-238] was tested, and the inhibition at 10 µM (PRMT5) was -12%, the inhibition at 10 µM (NSD2) was 3% and the inhibition at 10 µM (SETD2) was 19%. The inhibition at 10 µM (DOT1L) was 6%, the inhibition at 10 µM (BCDIN3D) was 4% and the inhibition at 10 µM (PRC2-EZH1) was 6%. The inhibition at 10 µM (SETD8) was -6% and the inhibition at 10 µM (PRDM9) was -1%.
